From patent US6060481A, “Method for improving insulin sensitivity using an adenosine receptor antagonist” (priority 1999, dated 2000)

Assays:
[1] = system: whole body glucose uptake; assay: Euglycemic hyperinsulinemic clamp, whole body glucose disposal and IMGU; assay type: in vivo, Zucker rats
Procedure: In this example, 6-8 week old lean and obese female animals were used. Each group received either vehicle or vehicle plus 1,3-dipropyl-8-(p-acrylic)phenylxanthine (BWA1433) (12 mg/kg every 12 h) for one week prior to the start of the experimental protocol, as described by Xu, et al., Am. J. Physiol., 274 (Endocrinol. Metab. 37): E271-E279 (1988). The vehicle in this case was 10 mg/ml methyl cellulose in H2 O. The final dose of BWA1433 or vehicle was administered approximately 1 h prior to the start of the experimental protocol.
After samples were obtained for basal metabolic determinations, a euglycemic hyperinsulinemic clamp was performed. Regular human insulin (Eli Lilly, Indianapolis, Ind.) was infused intravenously at a rate of 100 mU·min^-1 ·kg^-1 for 3 h. This infusion rate has been previously determined to result in steady-state plasma insulin concentrations of approximately 5,000 uU/ml, as reported in Lang, et al., Endocrinology, 130:43-52 (1996); Lang, Am. J. Physiol., 263 (Endocrinol. Metab. 26): E703-E711 (1992); and Lang, et al., Metabolism, 39:1096-1107 (1990). […] Tritiated glucose was not infused during the hyperinsulinemic clamp, because preliminary studies indicate that this insulin infusion rate completely suppresses endogenous glucose appearance in both obese and lean animals.
During the hyperinsulinemic clamp, blood glucose concentrations were determined at 10-min intervals using the YSI glucose analyzer (Yellow Springs, Ohio). Glucose specific activity was determined on neutralized supernatants of deproteinized plasma as taught by Lang, Am. J. Physiol, 263 (Endocrinol. Metab. 26): E703-D711 (1992). Tissue samples (600-900 mg wet wt) were immersed in ice-cold 0.5 N PCA, homogenized, and centrifuged. The concentration of phosphorylated 2-DG in tissues was calculated as the difference between total ^14 C-radioactivity of the neutral extract and the ^14 C-radioactivity remaining after Somogyi treatment as described in detail by Lang CH, Dobrescu C, and Meszaros K., Metabolism 39:1096-1107 (1990).
Rates of whole body glucose appearance (Ra) and disappearance (Rd) are calculated using the steady-state equations of Steele, Ann. NY Acad. Sci., 82:420-430 (1959). The glucose metabolic clearance rate (MCR) is calculated by dividing the glucose Rd by the prevailing glucose concentration. Since the prevailing insulin levels during the hyperinsulinemic clamp completely suppress endogenous glucose production, the rate of whole body glucose disposal equals the exogenous glucose infusion rate. The increment in insulin-stimulated glucose uptake (IMGU) for each animals is calculated by subtracting the basal endogenous glucose Ra from the measured rate of glucose disposal determined during the last 40 min of the clamp. In vivo glucose uptake for each tissue examined is calculated based on the accumulation of phosphorylated 2-DG by a respective tissue, the integrated 2-DG:glucose ratio in the plasma during the 40-min labeling period, and the lumped constant as described by Lang, Endocrinology, 128:645-653 (1991).

[2] = system: protein tyrosine phosphatase; assay: In vitro inclusion of compound in WGA eluates, protein tyrosine phosphatase assay; assay type: biochemical, Zucker rats; conditions: 10 μM in vitro in WGA eluates from obese controls
Procedure: Assays were performed at 25° C. using a slight modification of a protocol described by Ahmad and Goldstein, Am. […] Each tube contained 10 μl [^32 P]tyrosine-phosphorylated myelin basic protein (1×10^4 dpm; 2×10^3 dpm/pmol), 10 μl 5X PTP-ase buffer [250 mM HEPES (pH 7.0), 10 mM EDTA, 5 mM DTT], and 1-5 μg muscle fraction protein and water in a total volume of 40 μl. Consumption of substrate (phosphorylated myelin basic protein) was limited to 20%. […] The assay differs from that of Ahmed and Goldstein in that the amount of phosphorylated substrate (myelin basic protein) was lower and its specific activity higher, similar to the skeletal muscle PTPase assay described by Tanowitz, et al., Brain Res., 712:299-306 (1996).
PTPase was measured in skeletal muscle cytosolic fractions, particulate fractions, and in partially purified insulin receptors. To assay PTPase activity in partially purified insulin receptors the WGA eluates were dialyzed overnight against 0.1% β-mercaptoethanol and 20 mM HEPES, pH 7.2, to eliminate phosphatase inhibitors.

[3] = Basal postabsorptive glucose kinetics; assay type: in vivo, Zucker rats; conditions: for Glucose Concentration / Glucose MCR / Glucose Ra: basal postabsorptive, treated 1 wk
Procedure: In this example, 6-8 week old lean and obese female animals were used. Each group received either vehicle or vehicle plus 1,3-dipropyl-8-(p-acrylic)phenylxanthine (BWA1433) (12 mg/kg every 12 h) for one week prior to the start of the experimental protocol, as described by Xu, et al., Am. […] The vehicle in this case was 10 mg/ml methyl cellulose in H2 O. The final dose of BWA1433 or vehicle was administered approximately 1 h prior to the start of the experimental protocol.
On the day prior to the start of the experimental protocol, animals were anesthetized with an intramuscular injection of ketamine and xylazine (90 and 9 mg/kg body weight, respectively), and sterile surgery was performed to implant catheters in the carotid artery and jugular vein according to the methods taught by Lang et al., Endocrinology, 130: 43-52 (1992). After surgery, animals were housed in individual cages and provided water ad libitum. Animals were fasted overnight.
The following morning, a primed, constant intravenous infusion of [3-^3 H]glucose (high-performance liquid chromatography purified; DuPont-New England Nuclear, Boston, Mass.) was initiated to determine basal glucose kinetics. A 7-μCi bolus injection of labeled glucose was administered followed by a continuous infusion at a rate of 0.083 μCi/min for the next 2 h. Arterial blood samples were collected at 100 and 120 min (0.3 ml each) after the start of the tracer infusion. Blood was collected in heparinized syringes, centrifuged, and the plasma glucose concentration and glucose specific activity were determined on each sample.
Rates of whole body glucose appearance (Ra) and disappearance (Rd) are calculated using the steady-state equations of Steele, Ann. […] The glucose metabolic clearance rate (MCR) is calculated by dividing the glucose Rd by the prevailing glucose concentration.

CCCn1c(=O)c2[nH]c(-c3ccc(C=CC(=O)O)cc3)nc2n(CCC)c1=O [BWA1433, 1,3-dipropyl-8-(p-acrylic)phenylxanthine]
Change in IMGU ([1]; lean Zucker rats): No change | Decrease in whole body glucose disposal ([1]; lean animals, hyperinsulinemic clamp): 16% | Average plasma glucose concentration during final hour of clamp ([1]; lean rats): 5.4 ± 0.1 mM | Average plasma glucose concentration during final hour of clamp ([1]; obese rats): 5.5 ± 0.1 mM | Increase in IMGU compared to vehicle-treated obese animals ([1]; obese rats): more than 6 fold | Increase in rate of whole body glucose uptake compared to untreated obese rats ([1]; obese rats, hyperinsulinemic clamp): 88% | Whole body glucose uptake rate lower than in lean control animals ([1]; treated obese animals versus lean control): approximately 50% | Effect on protein tyrosine phosphatase activity [2]: no effect | Alterations in any parameter of glucose metabolism ([3]; basal conditions, either group (lean, obese)): did not produce detectable alterations | Glucose Concentration ([3]; lean rats): 5.1 ± 0.2 mM | Glucose MCR ([3]; lean rats): 7.1 ± 0.8 ml · min^-1 .multidot | Glucose Ra ([3]; lean rats): 36.8 ± 2.9 μmol^-1 · min .multid | Glucose Concentration ([3]; obese rats): 4.5 ± 0.2 mM | Glucose MCR ([3]; obese rats): 8.3 ± 0.8 ml · min^-1 .multidot | Glucose Ra ([3]; obese rats): 37.5 ± 4.8 μmol^-1 · min .multid
